Experimental data from ChEMBL document CHEMBL1156510, “Epidermal growth factor receptor and notch pathways participate in the tumor suppressor function of gamma-secretase” (2007).
Activity calls are given as the source filed them. No cut-off for these calls is given here.

Experiments:
Fibroblast [1] = assay: Inhibition of EGF induced Nct+/+ C57BL/6129Svi mouse fibroblast cell proliferation at 5 uM; type: functional, cell-based; conditions: C57BL/6
Fibroblast [2] = assay: Inhibition of EGF induced Nct-/- C57BL/6;129Svi mouse fibroblast cell proliferation at 5 uM; type: functional, cell-based
Fibroblast [3] = assay: Inhibition of Nct-/- C57BL/6;129Svi mouse fibroblast cell proliferation; type: functional, cell-based
Mus musculus [4] = assay: Reduction of amyloid beta in Tg2576 mouse brain at 2.5 mg/kg/day; type: functional; parameters: scale not given: the % may be the effect or the level left
Mus musculus [5] = assay: Induction of hyperproliferative skin lesions assessed as epidermal hyperplasia in Nct+/- C57BL/6;129Svi mouse at 2.5 mg/kg/day; type: functional, organism-based
Mus musculus [6] = assay: Reduction of amyloid beta in Tg2576 mouse plasma at 2.5 mg/kg/day; type: functional; parameters: scale not given: the % may be the effect or the level left

For `COc1cc2ncnc(Nc3cccc(Cl)c3)c2cc1OC`, the Activity (Fibroblast [1]) was “inactive”, the Activity (Fibroblast [2]) was “Active” and the Activity (Fibroblast [3]) was “Active”.
`C[C@H](NC(=O)[C@@H](O)c1cc(F)cc(F)c1)C(=O)N[C@@H]1C(=O)N(C)c2ccccc2-c2ccccc21` was tested, and the Activity (Mus musculus [4]) was >70%, the Activity (Mus musculus [5]) was “Active” and the Activity (Mus musculus [6]) was >90%.
